From patent US20240068023A1 (The Trustees of Indiana University, priority 2021, published 2024)
“Also recorded” adds a separate entry of the source. Like-named read-outs stand apart in the source and are kept apart here.

Columns and labels:
[1] = tested on: children undergoing PE and PSF surgeries; assay: Postoperative opioid use, pain scores, FDI and hospital stay with multidose methadone-based multimodal analgesia (Example 1); assay type: in vivo, human; details: for postoperative opioid use (morphine equivalents): current Example
[2] = cited from earlier work
[3] = tested on: children undergoing PE and PSF surgeries; assay: CYP2B6 genetic associations with methadone-induced PONV and pain scores (Example 3); assay type: in vivo, human
Text: This Example is a prospective, genotype-blinded, clinical observational study of children undergoing Nuss bar repair for pectus excavatum (PE) and posterior spinal fusion (PSF) repair for idiopathic scoliosis that received multidose methadone-based multimodal analgesia, performed in a tertiary care pediatric hospital.
Multimodal analgesia protocols as illustrated in TABLE 1 set forth above in Example 1 were followed for all the participants undergoing the surgeries.
The primary clinical outcome measured was PONV. The secondary outcome measured was maximum postoperative pain scores. Episodes of PONV were recorded as a binary outcome from nursing reports on electronic health records. Analgesic efficacy was described in terms of patient self-reported pain scores. Pain scores were collected every 2 to 4 h using a self-reported numeric rating scale ranging from 0 to 10.
Analyses were performed using the dominant, additive or recessive models to explore for possible associations. Associations were tested using ‘A’ as the referent allele and ‘a’ as the alternative allele under dominant model (i.e. AA vs. Aa/aa), additive model (i.e. AA vs. Aa vs. aa) and recessive model (i.e. AA/Aa vs. aa). Linear regression was used to investigate SNP associations for pain score. Poisson regression was used to investigate SNP associations for PONV. Unadjusted as well as covariate-adjusted analyses, adjusted for weight, race, age, surgery type and sex were performed. For primary outcome, PONV, the SNP's rate ratios (i.e. exponential of the slope parameter in the Poisson regression), p-values and 95% Cis were computed. For postoperative pain score, the SNPs' effect (i.e. the slope parameter in the linear regression model), p-values, and 95% confidence intervals (CIs) were computed.
Because eight SNPs were used for the final analysis, a Bonferroni correction was used for multiple comparisons for the primary outcome measure, which yielded a significance threshold of p=0.00625 [p=0.05/8 SNPs)].

[4] = tested on: adolescents undergoing PSF that received methadone; assay: Preliminary pharmacogenetic associations in 50 PSF adolescents that received methadone; assay type: in vivo, human
Text: OPRM1 rs1799971 is also associated with susceptibility to dependence.

[5] = tested on: children undergoing PE and PSF surgeries; assay: Safety of multidose perioperative methadone: respiratory depression, PONV, QTc (Example 1)
[6] = Plasma R-, S- and total methadone concentrations after multiple small perioperative methadone doses (Example 1); details: human, in vivo, 0.1 mg/kg/dose
[7] = tested on: adolescents undergoing PSF; details: cited from earlier work; for postoperative opioid use (morphine equivalents): another adolescent PSF study, single larger intraoperative methadone dose; for mean morphine equivalent dose 0-72 hour: historical cohort
[8] = tested on: children undergoing PE and PSF surgeries; assay: Regression of clinical outcomes on pharmacokinetic measures (Example 1, Table 3); details: logistic regression; CI in next column
AAG = details: plasma; cited from earlier work
[9] = equations 7, 10; decrease
Text: Oral doses were either given as a tablet or a suspension depending on the patient's convenience. […] The time schedule was later modified to collect more samples through the 1st and 3rd inter-dose interval without samples through the 2n d interdose interval. This was done to aid in the optimal spread of the collected concentration time-points and improvement of estimation of absorption parameters of the oral doses. Some of the samples collected in a parallel study were also used whenever available with the consent of the patient to aid with the better estimation of the terminal elimination phase.
The first-order conditional estimation method with η-ε interaction (FOCE-I) was used throughout the model building process. The dose of the drug, concentrations of the drug and the metabolite were converted to their molar counterparts to aid in the accurate estimation of the pharmacokinetic parameters. Perl-Speaks-NONMEM v.4.9.0, R v.4.0.4 (R Foundation for Statistical Computing) with the Xpose4 package v.4.6.0, RStudio v1.4 and Pirana v.2.9.9 were used for data exploration, visualization, diagnostics and automation. Measured plasma concentrations that were below the LLOQ were dealt with using the M1 method (discarding concentrations below the LLOQ and estimate the PK parameters using the remaining concentrations). […] Model assessment was based on successful minimization, OFV, the proper running of the covariance step, relative standard error of the parameter estimates, the goodness of fit plots and eta-shrinkage. Model validation was done using visual predictive checks and a bootstrapping procedure. The predictive performance of the models was evaluated using prediction corrected visual predictive checks (n=1000). The robustness of the final parameter estimates and the stability of the final model were validated using bootstrapping by generating 1000 resampled datasets with replacement.
The model building process was done in a step-wise process. Multiple disposition models (one-, two- and three-compartment) were evaluated. Absorption models with various absorption parameters (first order absorption with and without lag, transit compartment models) were tried. Bioavailability was estimated as each patient had both intravenous and oral dose data. […] Vf was fixed to 1 in the model due to unidentifiability of the metabolite parameters as there were no urine data available for either the drug or the metabolite. CLF is the fraction of CL, the total clearance of the drug that contributes to CL2, the clearance towards the formation of the metabolite. […]
The demographic covariates checked were biological gender, body weight, fat free mass, BMI and race. […] AAG was measured at every time-point the concentrations were measured and were therefore used as a time-varying covariate in the model. […]

[10] = postoperative day 1, median (IQR)
[11] = postoperative day 2, median (IQR)
[12] = postoperative day 3, median (IQR)
[13] = postoperative day 4, median (IQR)
[14] = postoperative day 5, median (IQR)

Compound: CCC(=O)C(CC(C)N(C)C)(c1ccccc1)c1ccccc1 (racemic) [methadone]
- mean morphine equivalent, multi-dose methadone regimen ([1]; 0-72 hour, standard deviation 28.4): 113.25
- median FDI score ([1]; 3 months postoperatively, median (IQR)): 4 (0-9.5)
- median FDI score ([1]; 6 months postoperatively, median (IQR)): 2 (0-4)
- median FDI score ([1]; 12 months postoperatively, median (IQR)): 0 (0-3.5)
- Average pain scores during the entire in-hospital stay ([1]; PE): 3.60
- median hospital stay ([1]; PE): 4 days
- Average pain scores during the entire in-hospital stay ([1]; PSF): 3.95
- median hospital stay ([1]; PSF): 3 days
- median total opioid usage ([1]; following PE): 2.6 mg/kg
- median total opioid usage ([1]; following PSF): 2.1 mg/kg
- Average morphine equivalent dose ([1]; median (IQR)): 0.66 (0.59-0.74) mg/kg/day
- median usage of the common rescue opioids ([1]; not different between the surgeries): 0.03 mg/kg morphine equivalents
- Average pain score ([1]; numeric rating scale 0 to 10, median (IQR)): 3.53 (2.73-4.80)
- postoperative opioid use (morphine equivalents) ([1]; postoperative day 1): 0.6 mg/kg
- Pain scores [1, 10]: 3.5 (2.3-5.1)
- morphine equivalent units, including methadone doses [1, 10]: 0.61 (0.56-0.65) MEU/kg
- postoperative opioid use (morphine equivalents) ([1]; postoperative day 2): 0.88 mg/kg
- Pain scores [1, 11]: 3.4 (2.9-4.6)
- morphine equivalent units, including methadone doses [1, 11]: 0.88 (0.68-1.06) MEU/kg
- postoperative opioid use (morphine equivalents) ([1]; postoperative day 3): 0.64 mg/kg
- Pain scores [1, 12]: 3.7 (2.0-5.2)
- morphine equivalent units, including methadone doses [1, 12]: 0.58 (0.37-0.85) MEU/kg
- Pain scores [1, 13]: 3.8 (2.7-5.0)
- morphine equivalent units, including methadone doses [1, 13]: 0.42 (0.35-0.58) MEU/kg
- Pain scores [1, 14]: 3.7 (3.3-4.4)
- morphine equivalent units, including methadone doses [1, 14]: 0.59 (0.21-0.67) MEU/kg
- mean morphine equivalent dose in the first 72 postoperative hours ([1]; printed as mean (95% CI: 98.5-131.8)): 120.2 mg
- opioid use reduction ([1]; vs historical PCA opioids without intraoperative methadone, first 72 postoperative hours): 58.67%
- opioid use reduction ([1]; vs historical single intraoperative methadone of 0.1 mg/kg): 59.12%
- opioid use reduction ([1]; vs historical single intraoperative methadone of 0.2 mg/kg): 47.81%
- opioid use reduction ([1]; vs historical single intraoperative methadone of 0.3 mg/kg): 48.76%
- contribution of CYP3A4 to the metabolism of the drug ([2]; in vivo): more than 50%
- parent drug eliminated in urine ([2]; in vivo): 10-20%
- inter-individual variation in blood levels after methadone administration ([2]; up to): ≤ 17 fold
- Morphine equivalent - Fusion ([3]; mean): 0.6 mg/kg
- Morphine equivalent - Pectus ([3]; mean): 0.7 mg/kg
- Length of hospital stay ([3]; mean, 53 children): 2.7 days
- Beta, patient reported pain scores ([3]; rs4803419, Recessive model TT vs CC/TT (so in the source), Covariate adjusted analysis): −1.70
- Beta, patient reported pain scores ([3]; rs4803419, Recessive model TT vs CC/TT (so in the source), Unadjusted analysis): −1.78
- Beta, patient reported pain scores ([3]; rs10500282, Additive Model CC vs TT, Covariate adjusted analysis): −2.61
- Beta, patient reported pain scores ([3]; rs10500282, Additive Model CC vs TT, Unadjusted analysis): −2.00
- Beta, patient reported pain scores ([3]; rs10500282, Additive Model TC vs TT, Covariate adjusted analysis): 1.31
- Beta, patient reported pain scores ([3]; rs10500282, Additive Model TC vs TT, Unadjusted analysis): 1.33
- Beta, patient reported pain scores ([3]; rs10500282, Dominant model TC/CC vs TT, Covariate adjusted analysis): 1.18
- Beta, patient reported pain scores ([3]; rs10500282, Dominant model TC/CC vs TT, Unadjusted analysis): 1.16
- Beta, patient reported pain scores ([3]; rs11882424, Additive Model TC vs TT, Covariate adjusted analysis): 2.12
- Beta, patient reported pain scores ([3]; rs11882424, Additive Model TC vs TT, Unadjusted analysis): 2.19
- Beta, patient reported pain scores ([3]; rs11882424, Dominant model TC/CC vs TT, Covariate adjusted analysis): 2.12
- Beta, patient reported pain scores ([3]; rs11882424, Dominant model TC/CC vs TT, Unadjusted analysis): 2.19
- average in-hospital opioid use ([4]; OPRM1 rs1799971 AA genotype): 33.2 ± 8.0 mg
- average in-hospital opioid use ([4]; OPRM1 rs1799971 GG and GA genotype): 40.1 ± 6.1 mg
- hospital stay ([4]; adolescents other than FAAH rs3766246 wild type): 2.6 ± 0.8 days
- lower in-hospital opioid use, homologous/heterologous variants of FAAH rs3766246 and rs4141964 ([4]; compared with the wild type): 15-20%
- higher average in-hospital opioid use, OPRM1 rs1799971 GG and GA vs AA genotype ([4]; in vivo): 20%
- longer hospital stay, wild type of FAAH rs3766246 ([4]; than others): 1 days
- episodes of PONV ([5]; 38 children): 18
- respiratory depression observed ([5]; 38 children receiving multiple dose of methadone): 0%
- respiratory depression (in words) ([5]; 38 children, 95% Wilson binomial confidence [0, 0.09]): No child in this Example had respiratory depression; also recorded: no patient had respiratory depression
- Postoperative QTc ([5]; median (IQR), Bazett's formula): 431 (414-440) ms
- postoperative QTc longer than preoperative QTc interval ([5]; median, IQR -10, 28): 9 ms
- patients with PONV ([5]; of 38 children): 12
- Cmax [6]: 24.7 ng/mL
- incidence of postoperative respiratory depression ([7]; 7 out of 31 receiving intraoperative methadone, first 48 hours): 22.6%
- postoperative opioid use (morphine equivalents) ([7]; postoperative day 1): 0.54 mg/kg
- postoperative opioid use (morphine equivalents) ([7]; postoperative day 2): 1.08 mg/kg
- postoperative opioid use (morphine equivalents) ([7]; postoperative day 3): 1.29 mg/kg
- mean morphine equivalent dose 0-72 hour ([7]; single intraoperative methadone 0.3 mg/kg): 221
- mean morphine equivalent dose 0-72 hour ([7]; single intraoperative methadone of 0.1 mg/kg): 277 mg
- PONV incidence in other studies ([7]; in vivo): 33-38%
- incidence of respiratory depression ([7]; large observational study, intraoperative methadone of 0.14 mg/kg and postoperative opioids): 37%
- OR, Nausea/Vomiting vs Methadone dose per kg per day [8]: 3.1e3
- bound to AAG (AAG): 80-90%

Compound: CCC(=O)C(C[C@@H](C)N(C)C)(c1ccccc1)c1ccccc1 [R-methadone]
- fractional change of V2 per active allele rs17650 (ORM1) [9]: 0.443
- proportional change of V2 per unit AAG conc from 94.76 [9]: 0.00291

Compound: CCC(=O)C(C[C@H](C)N(C)C)(c1ccccc1)c1ccccc1 [S-methadone]
- fractional change of V2 per active allele rs17650 (ORM1) [9]: 0.526
- proportional change of V2 per unit AAG conc from 94.76 [9]: 0.00192
